Assay results: patent US20170232083A1, “METHODS OF DIAGNOSIS AND TREATMENT OF CELIAC DISEASE IN CHILDREN” (priority 2014, published 2017)

Tested on: PBMC (polyclonal gluten-specific T cells) of paediatric and adult CD patients
Experiment: IFN-γ ELISpot of PBMC after 3 day oral wheat challenge (SFU, % of maximal peptide response, dominance scores, EC50; Examples 5-6)
Format: cell-based, human
Conditions: for IFN-γ ELISpot response: after oral wheat challenge; for Cross-reactive T cell response: following wheat challenge
[1] = patient G, 11-17 yrs, cut-off 10 SFU
[2] = patient H, 11-17 yrs, cut-off 10 SFU
[3] = patient ID not given, 11-17 yrs, cut-off 10 SFU
[4] = patient ID not given, max peptide 95 SFU
[5] = patient P, 11-17 yrs, cut-off 21.6 SFU
[6] = patient Q, 11-17 yrs, cut-off 10 SFU
[7] = patient U, H, 11-17 yrs, cut-off 10 SFU
[8] = patient V, 6-10 yrs, cut-off 10 SFU
[9] = patient Y, 6-10 yrs, cut-off 10 SFU
[10] = patient eleven, 6-10 yrs, cut-off 10 SFU
[11] = patient eleven, max peptide 57 SFU
[12] = patient four, 3-5yrs, cut-off 10 SFU
[13] = patient four, max peptide 44 SFU
[14] = patient seven, 6-10 yrs, cut-off 10.5 SFU
[15] = patient ten, 3-5yrs, cut-off 10 SFU
[16] = patient three, 6-10 yrs, cut-off 10.5 SFU
[17] = patient two, 3-5yrs, cut-off 10 SFU
[18] = patient two, max peptide 60 SFU
[19] = subject I (3-5yrs/6-10yrs part)
[20] = subject J (3-5yrs/6-10yrs part)
[21] = subject K (3-5yrs/6-10yrs part)
[22] = subject V (3-5yrs/6-10yrs part)
[23] = subject W (3-5yrs/6-10yrs part)
[24] = subject Y (3-5yrs/6-10yrs part)
[25] = subject five (3-5yrs/6-10yrs part)
[26] = subject seven (3-5yrs/6-10yrs part)
[27] = subject six (3-5yrs/6-10yrs part)
[28] = subject ten (3-5yrs/6-10yrs part)
[29] = subject two (3-5yrs/6-10yrs part)
[30] = patient A, 11-17 yrs, cut-off 10 SFU
[31] = patient E, H, 11-17 yrs, cut-off 10 SFU
[32] = patient F, 11-17 yrs, cut-off 10 SFU
[33] = patient H (HLA-DQ2.5 homozygote), 3-5yrs, cut-off 10 SFU
[34] = patient N, 3-5yrs, cut-off 10 SFU
[35] = patient twelve, 11-17 yrs, cut-off 10 SFU

FLQPEQPFPEQPEQPYPEQPEQPFPQ
IFN-γ ELISpot response [1]: 1 SFU
IFN-γ ELISpot response [2]: 6 SFU
IFN-γ ELISpot response [3]: 23 SFU
Significant response as percentage of maximal peptide SFU [4]: ′′ (21-40% = ′′)
Significant response as percentage of maximal peptide SFU (patient J, max peptide 196 SFU): ′ (11-20% = ′)
Significant response as percentage of maximal peptide SFU (patient K, max peptide 53 SFU): ′′ (21-40% = ′′)
IFN-γ ELISpot response [5]: 11 SFU
IFN-γ ELISpot response [6]: 18 SFU
Significant response as percentage of maximal peptide SFU (patient Q, max peptide 97 SFU): ′ (11-20% = ′)
IFN-γ ELISpot response [7]: 26 SFU
Significant response as percentage of maximal peptide SFU (patient U, max peptide 81 SFU): ′′ (21-40% = ′′)
IFN-γ ELISpot response [8]: 12 SFU
Significant response as percentage of maximal peptide SFU (patient V, max peptide 35 SFU): ′′ (21-40% = ′′)
IFN-γ ELISpot response [9]: 6 SFU
IFN-γ ELISpot response [10]: 15 SFU
Significant response as percentage of maximal peptide SFU [11]: ′′ (21-40% = ′′)
IFN-γ ELISpot response [12]: 10 SFU
Significant response as percentage of maximal peptide SFU [13]: ′′ (21-40% = ′′)
IFN-γ ELISpot response [14]: 20 SFU
Significant response as percentage of maximal peptide SFU (patient seven, max peptide 27 SFU): + (>70% = +)
IFN-γ ELISpot response [15]: 3 SFU
IFN-γ ELISpot response [16]: 22 SFU
IFN-γ ELISpot response [17]: 12 SFU
Significant response as percentage of maximal peptide SFU [18]: ′ (11-20% = ′)

QPFPQPEQPFRQQ
Cross-reactive T cell response (subject A, 11-17yrs): 1 SFU
Significant response as a percentage of maximal peptide SFU (subject D, 11-17yrs): ′′′ (41-70% = ′′′)
Cross-reactive T cell response (subject D, 11-17yrs): 15 SFU
Significant response as a percentage of maximal peptide SFU (subject E, 11-17yrs): ′ (11-20% = ′)
Cross-reactive T cell response (subject E, 11-17yrs): 37 SFU
Significant response as a percentage of maximal peptide SFU (subject F, 11-17yrs): ′ (11-20% = ′)
Cross-reactive T cell response (subject F, 11-17yrs): 21 SFU
Cross-reactive T cell response (subject G, 11-17yrs): 3 SFU
Cross-reactive T cell response (subject H): 0 SFU
Cross-reactive T cell response [19]: 4 SFU
Significant response as a percentage of maximal peptide SFU (subject J): (6-10% - ^)
Cross-reactive T cell response [20]: 15 SFU
Significant response as a percentage of maximal peptide SFU (subject K): ′′ (21-40% = ′′)
Cross-reactive T cell response [21]: 21 SFU
Cross-reactive T cell response (subject P, 11-17yrs): 16 SFU
Significant response as a percentage of maximal peptide SFU (subject Q, 11-17yrs): ′′′ (41-70% = ′′′)
Cross-reactive T cell response (subject Q, 11-17yrs): 44 SFU
Significant response as a percentage of maximal peptide SFU (subject T, 11-17yrs): ′′′ (41-70% = ′′′)
Cross-reactive T cell response (subject T, 11-17yrs): 58 SFU
Significant response as a percentage of maximal peptide SFU (subject U, 11-17yrs): ′′ (21-40% = ′′)
Cross-reactive T cell response (subject U, 11-17yrs): 21 SFU
Significant response as a percentage of maximal peptide SFU (subject V): ′′′ (41-70% = ′′′)
Cross-reactive T cell response [22]: 20 SFU
Cross-reactive T cell response [23]: 8 SFU
Cross-reactive T cell response [24]: 8 SFU
Significant response as a percentage of maximal peptide SFU (subject five): + (>70% = +)
Cross-reactive T cell response [25]: 37 SFU
Cross-reactive T cell response (subject nine, 11-17yrs): 0 SFU
Cross-reactive T cell response [26]: 6 SFU
Cross-reactive T cell response [27]: 5 SFU
Cross-reactive T cell response [28]: 6 SFU
Significant response as a percentage of maximal peptide SFU (subject two): ′′ (21-40% = ′′)
Cross-reactive T cell response [29]: 24 SFU

QPFPQPEQQLPLQ
Cross-reactive T cell response (subject A, 11-17yrs): 1 SFU
Cross-reactive T cell response (subject D, 11-17yrs): 5 SFU
Significant response as a percentage of maximal peptide SFU (subject E, 11-17yrs): ′ (11-20% = ′)
Cross-reactive T cell response (subject E, 11-17yrs): 30 SFU
Cross-reactive T cell response (subject F, 11-17yrs): 5 SFU
Cross-reactive T cell response (subject G, 11-17yrs): 1 SFU
Cross-reactive T cell response (subject H): 1 SFU
Cross-reactive T cell response [19]: 3 SFU
Significant response as a percentage of maximal peptide SFU (subject J): ′′′ (41-70% = ′′′)
Cross-reactive T cell response [20]: 79 SFU
Cross-reactive T cell response [21]: 9 SFU
Cross-reactive T cell response (subject P, 11-17yrs): 11 SFU
Significant response as a percentage of maximal peptide SFU (subject Q, 11-17yrs): ′ (11-20% = ′)
Cross-reactive T cell response (subject Q, 11-17yrs): 11 SFU
Significant response as a percentage of maximal peptide SFU (subject T, 11-17yrs): ′′ (21-40% = ′′)
Cross-reactive T cell response (subject T, 11-17yrs): 27 SFU
Cross-reactive T cell response (subject U, 11-17yrs): 4 SFU
Cross-reactive T cell response [22]: 3 SFU
Cross-reactive T cell response [23]: 3 SFU
Cross-reactive T cell response [24]: 5 SFU
Significant response as a percentage of maximal peptide SFU (subject five): ′′ (21-40% = ′′)
Cross-reactive T cell response [25]: 11 SFU
Cross-reactive T cell response (subject nine, 11-17yrs): 3 SFU
Cross-reactive T cell response [26]: 11 SFU
Significant response as a percentage of maximal peptide SFU (subject six): + (>70% = +)
Cross-reactive T cell response [27]: 11 SFU
Cross-reactive T cell response [28]: 6 SFU
Cross-reactive T cell response [29]: 2 SFU

PEQPFQPEQPFPQQ
Cross-reactive T cell response (subject A, 11-17yrs): 2 SFU
Cross-reactive T cell response (subject D, 11-17yrs): 1 SFU
Significant response as a percentage of maximal peptide SFU (subject E, 11-17yrs): (6-10% - ^)
Cross-reactive T cell response (subject E, 11-17yrs): 12 SFU
Cross-reactive T cell response (subject F, 11-17yrs): 6 SFU
Cross-reactive T cell response (subject G, 11-17yrs): 5 SFU
Cross-reactive T cell response (subject H): 3 SFU
Cross-reactive T cell response [19]: 1 SFU
Significant response as a percentage of maximal peptide SFU (subject J): ′ (11-20% = ′)
Cross-reactive T cell response [20]: 31 SFU
Cross-reactive T cell response [21]: 8 SFU
Cross-reactive T cell response (subject P, 11-17yrs): 9 SFU
Cross-reactive T cell response (subject Q, 11-17yrs): 7 SFU
Significant response as a percentage of maximal peptide SFU (subject T, 11-17yrs): ′ (11-20% = ′)
Cross-reactive T cell response (subject T, 11-17yrs): 11 SFU
Cross-reactive T cell response (subject U, 11-17yrs): 6 SFU
Cross-reactive T cell response [22]: 7 SFU
Cross-reactive T cell response [23]: 3 SFU
Cross-reactive T cell response [24]: 1 SFU
Cross-reactive T cell response [25]: 3 SFU
Cross-reactive T cell response (subject nine, 11-17yrs): 0 SFU
Cross-reactive T cell response [26]: 7 SFU
Cross-reactive T cell response [27]: 2 SFU
Significant response as a percentage of maximal peptide SFU (subject ten): + (>70% = +)
Cross-reactive T cell response [28]: 12 SFU
Cross-reactive T cell response [29]: 6 SFU

PEQTFPEQPQLPF
IFN-γ ELISpot response [30]: 3 SFU
IFN-γ ELISpot response [31]: 19 SFU
Significant response as percentage of maximal peptide SFU (patient E, max peptide 224 SFU): (6-10% = ^)
IFN-γ ELISpot response [32]: 1 SFU
IFN-γ ELISpot response [1]: 15 SFU
Significant response as percentage of maximal peptide SFU (patient G, max peptide 15 SFU): + (>70% = +)
IFN-γ ELISpot response [33]: 2 SFU
IFN-γ ELISpot response [2]: 9 SFU
IFN-γ ELISpot response [3]: 0 SFU
Significant response as percentage of maximal peptide SFU (patient J, max peptide 196 SFU): + (>70% = +)
Significant response as percentage of maximal peptide SFU (patient K, max peptide 53 SFU): ′′′ (41-70% = ′′′)
IFN-γ ELISpot response [34]: 1 SFU
IFN-γ ELISpot response [5]: 4 SFU
IFN-γ ELISpot response [6]: 2 SFU
IFN-γ ELISpot response [7]: 1 SFU
IFN-γ ELISpot response [8]: 4 SFU
IFN-γ ELISpot response [9]: 1 SFU
IFN-γ ELISpot response [10]: 0 SFU
IFN-γ ELISpot response [12]: 0 SFU
IFN-γ ELISpot response [14]: 4 SFU
IFN-γ ELISpot response [15]: 4 SFU
IFN-γ ELISpot response [16]: 179 SFU
IFN-γ ELISpot response [35]: 0 SFU
IFN-γ ELISpot response [17]: 1 SFU

LQPRPQPELPYPQP
IFN-γ ELISpot response [30]: 6 SFU
Significant response as percentage of maximal peptide SFU (patient D, max peptide 30.5 SFU): ′′′ (41-70% = ′′′)
IFN-γ ELISpot response [31]: 142 SFU
Significant response as percentage of maximal peptide SFU (patient E, max peptide 224 SFU): ′′′ (41-70% = ′′′)
IFN-γ ELISpot response [32]: 178 SFU
Significant response as percentage of maximal peptide SFU (patient F, max peptide 178 SFU): + (>70% = +)
IFN-γ ELISpot response [1]: 4 SFU
IFN-γ ELISpot response [33]: 45 SFU
IFN-γ ELISpot response [2]: 10 SFU
Significant response as percentage of maximal peptide SFU (patient H, max peptide 17 SFU): ′′′ (41-70% = ′′′)
IFN-γ ELISpot response [3]: 89 SFU
Significant response as percentage of maximal peptide SFU [4]: + (>70% = +)
Significant response as percentage of maximal peptide SFU (patient II, max peptide 15 SFU): ′′′ (41-70% = ′′′)
Significant response as percentage of maximal peptide SFU (patient J, max peptide 196 SFU): + (>70% = +)
Significant response as percentage of maximal peptide SFU (patient K, max peptide 53 SFU): ′′′ (41-70% = ′′′)
Significant response as percentage of maximal peptide SFU (patient L, max peptide 11 SFU): + (>70% = +)
Significant response as percentage of maximal peptide SFU (patient M, max peptide 48 SFU): + (>70% = +)
IFN-γ ELISpot response [34]: 7 SFU
IFN-γ ELISpot response [5]: 64 SFU
Significant response as percentage of maximal peptide SFU (patient P, max peptide 64 SFU): + (>70% = +)
IFN-γ ELISpot response [6]: 97 SFU
Significant response as percentage of maximal peptide SFU (patient Q, max peptide 97 SFU): + (>70% = +)
IFN-γ ELISpot response [7]: 81 SFU
Significant response as percentage of maximal peptide SFU (patient U, max peptide 81 SFU): + (>70% = +)
IFN-γ ELISpot response [8]: 30 SFU
Significant response as percentage of maximal peptide SFU (patient V, max peptide 35 SFU): + (>70% = +)
IFN-γ ELISpot response [9]: 11 SFU
Significant response as percentage of maximal peptide SFU (patient Y, max peptide 16 SFU): ′′′ (41-70% = ′′′)
IFN-γ ELISpot response [10]: 38 SFU
Significant response as percentage of maximal peptide SFU [11]: ′′′ (41-70% = ′′′)
Significant response as percentage of maximal peptide SFU (patient five, max peptide 48 SFU): + (>70% = +)
IFN-γ ELISpot response [12]: 24 SFU
Significant response as percentage of maximal peptide SFU [13]: ′′′ (41-70% = ′′′)
IFN-γ ELISpot response [14]: 6 SFU
IFN-γ ELISpot response [15]: 6 SFU
IFN-γ ELISpot response [16]: 146 SFU
IFN-γ ELISpot response [35]: 18 SFU
IFN-γ ELISpot response [17]: 36 SFU
Significant response as percentage of maximal peptide SFU [18]: ′′′ (41-70% = ′′′)
